Assay results as given in ChEMBL document CHEMBL4673241, “Cannabitwinol, a Dimeric Phytocannabinoid from Hemp, Cannabis sativa L., Is a Selective Thermo-TRP Modulator” (J Nat Prod, 2020).

Tests used:
Format in all cases: cell-based
[1] = target: Transient receptor potential cation channel subfamily A member 1 (Rattus norvegicus) (UniProt Q6RI86); test: Agonist activity at rat TRPA1 stably transfected in HEK293 cells assessed as increase in calcium influx by Fluo-4-AM dye based spectrofluorimetric method relative to allylisothiocyanate; conditions: filed as agonist
[2] = target: T1, Heat sensitive channel TRPV3 (Rattus norvegicus) (UniProt Q4QYD9); test: Agonist activity at rat TRPV3 stably transfected in HEK293 cells assessed as increase in calcium influx by Fluo-4-AM dye based spectrofluorimetric method relative to ionomycin; conditions: filed as agonist
T1 sequence (whole entry): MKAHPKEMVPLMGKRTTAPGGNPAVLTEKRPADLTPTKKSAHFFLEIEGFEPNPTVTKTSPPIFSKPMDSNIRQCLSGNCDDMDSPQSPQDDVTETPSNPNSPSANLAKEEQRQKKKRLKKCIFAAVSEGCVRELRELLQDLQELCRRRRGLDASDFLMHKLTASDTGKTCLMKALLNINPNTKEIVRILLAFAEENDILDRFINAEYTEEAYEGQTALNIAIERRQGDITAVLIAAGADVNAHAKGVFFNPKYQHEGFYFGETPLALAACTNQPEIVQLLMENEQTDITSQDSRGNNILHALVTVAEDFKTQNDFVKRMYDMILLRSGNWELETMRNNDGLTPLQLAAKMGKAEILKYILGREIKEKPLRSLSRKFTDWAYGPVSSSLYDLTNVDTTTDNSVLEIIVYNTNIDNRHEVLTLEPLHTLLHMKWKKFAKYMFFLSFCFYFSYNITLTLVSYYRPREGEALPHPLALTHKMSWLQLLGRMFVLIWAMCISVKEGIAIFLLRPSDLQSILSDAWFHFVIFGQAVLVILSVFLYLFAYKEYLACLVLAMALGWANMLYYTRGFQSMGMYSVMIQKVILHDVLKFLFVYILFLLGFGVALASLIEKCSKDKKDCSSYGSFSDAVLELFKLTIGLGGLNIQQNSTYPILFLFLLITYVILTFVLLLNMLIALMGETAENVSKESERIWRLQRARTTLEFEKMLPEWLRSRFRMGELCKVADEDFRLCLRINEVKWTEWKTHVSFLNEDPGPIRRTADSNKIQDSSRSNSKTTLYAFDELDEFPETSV

[3] = target: T2, Transient receptor potential cation channel subfamily V member 1 (Homo sapiens, UniProt Q8NER1); test: Antagonist activity at human TRPV1 expressed in HEK293 cells assessed as inhibition of capsaicin-induced Ca2+ response preincubated for 5 mins followed by capsaicin addition by Fluo-4AM dye based fluorescence assay
[4] = target: Transient receptor potential cation channel subfamily M member 8 (Rattus norvegicus, UniProt Q8R455); test: Antagonist activity at rat TRPM8 expressed in HEK293 cells assessed as inhibition of icilin-induced Ca2+ response preincubated for 5 mins followed by icilin addition by Fluo-4AM dye based fluorescence assay
[5] = target: T3, Transient receptor potential cation channel subfamily A member 1 (Rattus norvegicus, UniProt Q6RI86); test: Agonist activity at rat TRPA1 stably transfected in HEK293 cells assessed as increase in calcium influx in presence of allylisothiocyanate by Fluo-4-AM dye based spectrofluorimetric method
[6] = target: T4, Transient receptor potential cation channel subfamily V member 4 (Rattus norvegicus, UniProt Q9ERZ8); test: Agonist activity at rat TRPV4 stably transfected in HEK293 cells assessed as increase in calcium influx in presence of ionomycin by Fluo-4-AM dye based spectrofluorimetric method
[7] = target: Transient receptor potential cation channel subfamily V member 4 (Rattus norvegicus) (UniProt Q9ERZ8); test: Agonist activity at rat TRPV4 stably transfected in HEK293 cells assessed as increase in calcium influx by Fluo-4-AM dye based spectrofluorimetric method relative to ionomycin
[8] = target: T5, Heat sensitive channel TRPV3 (Rattus norvegicus, UniProt Q4QYD9); test: Agonist activity at rat TRPV3 stably transfected in HEK293 cells assessed as increase in calcium influx in presence of ionomycin by Fluo-4-AM dye based spectrofluorimetric method
T5 sequence (Q4QYD9 whole entry): T1 sequence (whole entry)

[9] = target: T6, Transient receptor potential cation channel subfamily V member 2 (Rattus norvegicus, UniProt Q9WUD2); test: Agonist activity at rat TRPV2 stably transfected in HEK293 cells assessed as increase in calcium influx in presence of ionomycin by Fluo-4-AM dye based spectrofluorimetric method
T6 sequence (Q9WUD2 whole entry): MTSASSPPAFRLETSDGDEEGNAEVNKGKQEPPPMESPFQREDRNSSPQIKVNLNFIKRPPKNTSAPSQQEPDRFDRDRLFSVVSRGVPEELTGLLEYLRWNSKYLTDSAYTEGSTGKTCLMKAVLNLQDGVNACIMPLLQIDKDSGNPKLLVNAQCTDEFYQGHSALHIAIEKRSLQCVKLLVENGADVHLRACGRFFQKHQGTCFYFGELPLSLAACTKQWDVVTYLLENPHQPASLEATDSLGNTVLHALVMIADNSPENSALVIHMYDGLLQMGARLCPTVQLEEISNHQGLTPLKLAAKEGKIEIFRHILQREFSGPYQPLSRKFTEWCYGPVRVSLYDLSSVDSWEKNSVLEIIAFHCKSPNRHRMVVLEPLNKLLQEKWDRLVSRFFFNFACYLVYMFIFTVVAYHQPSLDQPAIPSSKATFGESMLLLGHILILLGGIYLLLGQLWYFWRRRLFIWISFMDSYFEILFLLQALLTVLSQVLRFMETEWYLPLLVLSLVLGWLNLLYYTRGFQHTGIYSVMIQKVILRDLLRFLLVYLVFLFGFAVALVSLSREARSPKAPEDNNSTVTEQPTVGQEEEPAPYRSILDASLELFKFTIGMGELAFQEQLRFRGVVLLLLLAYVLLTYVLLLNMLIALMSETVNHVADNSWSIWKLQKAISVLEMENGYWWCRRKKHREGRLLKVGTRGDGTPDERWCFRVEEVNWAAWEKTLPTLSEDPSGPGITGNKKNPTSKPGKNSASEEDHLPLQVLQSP

[10] = target: T5, Heat sensitive channel TRPV3; test: Antagonist activity at rat TRPV3 expressed in HEK293 cells assessed as inhibition of thymol-induced Ca2+ response preincubated for 5 mins followed by thymol addition by Fluo-4AM dye based fluorescence assay
[11] = target: T4, Transient receptor potential cation channel subfamily V member 4; test: Antagonist activity at rat TRPV4 expressed in HEK293 cells assessed as inhibition of GSK1016790A-induced Ca2+ response preincubated for 5 mins followed by GSK1016790A addition by Fluo-4AM dye based fluorescence assay
[12] = target: T3, Transient receptor potential cation channel subfamily A member 1; test: Antagonist activity at rat TRPA1 expressed in HEK293 cells assessed as inhibition of allylisothiocyanate-induced Ca2+ response preincubated for 5 mins followed by allylisothiocyanate addition by Fluo-4AM dye based fluorescence assay
[13] = target: T7, Transient receptor potential cation channel subfamily V member 2 (Rattus norvegicus) (UniProt Q9WUD2); test: Agonist activity at rat TRPV2 stably transfected in HEK293 cells assessed as increase in calcium influx by Fluo-4-AM dye based spectrofluorimetric method relative to ionomycin
T7 sequence (whole entry): T6 sequence (Q9WUD2 whole entry)

[14] = target: T2, Transient receptor potential cation channel subfamily V member 1; test: Agonist activity at human TRPV1 stably transfected in HEK293 cells assessed as increase in calcium influx by Fluo-4-AM dye based spectrofluorimetric method relative to ionomycin
[15] = target: T2, Transient receptor potential cation channel subfamily V member 1; test: Agonist activity at human TRPV1 stably transfected in HEK293 cells assessed as increase in calcium influx in presence of ionomycin by Fluo-4-AM dye based spectrofluorimetric method
[16] = target: T6, Transient receptor potential cation channel subfamily V member 2; test: Antagonist activity at rat TRPV2 expressed in HEK293 cells assessed as inhibition of LPC-induced Ca2+ response preincubated for 5 mins followed by LPC addition by Fluo-4AM dye based fluorescence assay

T4 sequence (Q9ERZ8 whole entry): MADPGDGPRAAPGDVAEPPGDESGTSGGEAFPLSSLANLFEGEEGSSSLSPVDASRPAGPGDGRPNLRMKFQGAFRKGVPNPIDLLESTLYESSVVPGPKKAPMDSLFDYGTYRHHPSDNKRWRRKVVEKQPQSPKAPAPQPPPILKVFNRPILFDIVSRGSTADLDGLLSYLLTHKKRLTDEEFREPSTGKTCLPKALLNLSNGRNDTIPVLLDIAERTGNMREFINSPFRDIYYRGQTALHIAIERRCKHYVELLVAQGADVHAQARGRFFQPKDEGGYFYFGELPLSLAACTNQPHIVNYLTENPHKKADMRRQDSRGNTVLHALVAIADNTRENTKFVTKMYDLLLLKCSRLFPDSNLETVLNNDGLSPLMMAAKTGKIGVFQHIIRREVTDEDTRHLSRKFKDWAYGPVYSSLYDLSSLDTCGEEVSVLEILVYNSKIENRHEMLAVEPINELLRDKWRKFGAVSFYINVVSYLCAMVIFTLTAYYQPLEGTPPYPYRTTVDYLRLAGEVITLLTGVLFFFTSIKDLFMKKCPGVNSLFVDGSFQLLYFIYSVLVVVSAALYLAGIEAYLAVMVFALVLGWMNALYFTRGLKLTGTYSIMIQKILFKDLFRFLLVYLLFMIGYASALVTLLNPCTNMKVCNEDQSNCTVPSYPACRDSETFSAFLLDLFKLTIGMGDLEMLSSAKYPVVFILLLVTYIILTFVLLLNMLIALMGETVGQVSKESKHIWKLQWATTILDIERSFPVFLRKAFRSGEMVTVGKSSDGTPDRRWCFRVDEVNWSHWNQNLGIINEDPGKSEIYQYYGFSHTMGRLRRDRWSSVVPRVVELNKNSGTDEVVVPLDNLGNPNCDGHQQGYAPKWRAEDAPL
T3 sequence (Q6RI86 whole entry): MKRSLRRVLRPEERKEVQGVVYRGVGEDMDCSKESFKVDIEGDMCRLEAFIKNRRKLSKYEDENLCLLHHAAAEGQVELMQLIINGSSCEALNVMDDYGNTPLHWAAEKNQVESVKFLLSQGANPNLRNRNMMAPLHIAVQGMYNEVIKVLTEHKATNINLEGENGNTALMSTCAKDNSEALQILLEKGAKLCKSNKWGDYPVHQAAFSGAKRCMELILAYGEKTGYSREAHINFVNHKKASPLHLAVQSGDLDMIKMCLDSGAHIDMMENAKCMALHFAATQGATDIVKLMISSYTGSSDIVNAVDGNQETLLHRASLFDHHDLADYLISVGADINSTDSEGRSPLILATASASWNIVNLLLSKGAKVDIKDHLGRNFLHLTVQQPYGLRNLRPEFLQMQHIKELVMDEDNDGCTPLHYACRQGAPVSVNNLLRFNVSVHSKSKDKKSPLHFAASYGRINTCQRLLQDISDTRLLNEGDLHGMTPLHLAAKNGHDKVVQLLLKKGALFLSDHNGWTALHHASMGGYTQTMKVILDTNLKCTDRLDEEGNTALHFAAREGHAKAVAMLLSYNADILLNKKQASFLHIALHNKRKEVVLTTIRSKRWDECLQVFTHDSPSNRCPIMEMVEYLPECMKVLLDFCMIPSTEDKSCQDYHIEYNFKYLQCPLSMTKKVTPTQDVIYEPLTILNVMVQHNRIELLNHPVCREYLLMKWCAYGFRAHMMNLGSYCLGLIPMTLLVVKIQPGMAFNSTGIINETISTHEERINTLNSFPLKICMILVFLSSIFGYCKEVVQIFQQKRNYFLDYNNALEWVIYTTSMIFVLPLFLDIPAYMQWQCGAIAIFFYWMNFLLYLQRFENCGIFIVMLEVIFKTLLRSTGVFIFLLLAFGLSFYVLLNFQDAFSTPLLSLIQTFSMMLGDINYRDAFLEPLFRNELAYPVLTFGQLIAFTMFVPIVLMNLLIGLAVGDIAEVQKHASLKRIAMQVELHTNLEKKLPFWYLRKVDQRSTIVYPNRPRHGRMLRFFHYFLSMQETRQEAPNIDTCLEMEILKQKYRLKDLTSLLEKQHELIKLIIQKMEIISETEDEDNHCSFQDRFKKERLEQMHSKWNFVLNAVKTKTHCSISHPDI
T2 sequence (Q8NER1 whole entry): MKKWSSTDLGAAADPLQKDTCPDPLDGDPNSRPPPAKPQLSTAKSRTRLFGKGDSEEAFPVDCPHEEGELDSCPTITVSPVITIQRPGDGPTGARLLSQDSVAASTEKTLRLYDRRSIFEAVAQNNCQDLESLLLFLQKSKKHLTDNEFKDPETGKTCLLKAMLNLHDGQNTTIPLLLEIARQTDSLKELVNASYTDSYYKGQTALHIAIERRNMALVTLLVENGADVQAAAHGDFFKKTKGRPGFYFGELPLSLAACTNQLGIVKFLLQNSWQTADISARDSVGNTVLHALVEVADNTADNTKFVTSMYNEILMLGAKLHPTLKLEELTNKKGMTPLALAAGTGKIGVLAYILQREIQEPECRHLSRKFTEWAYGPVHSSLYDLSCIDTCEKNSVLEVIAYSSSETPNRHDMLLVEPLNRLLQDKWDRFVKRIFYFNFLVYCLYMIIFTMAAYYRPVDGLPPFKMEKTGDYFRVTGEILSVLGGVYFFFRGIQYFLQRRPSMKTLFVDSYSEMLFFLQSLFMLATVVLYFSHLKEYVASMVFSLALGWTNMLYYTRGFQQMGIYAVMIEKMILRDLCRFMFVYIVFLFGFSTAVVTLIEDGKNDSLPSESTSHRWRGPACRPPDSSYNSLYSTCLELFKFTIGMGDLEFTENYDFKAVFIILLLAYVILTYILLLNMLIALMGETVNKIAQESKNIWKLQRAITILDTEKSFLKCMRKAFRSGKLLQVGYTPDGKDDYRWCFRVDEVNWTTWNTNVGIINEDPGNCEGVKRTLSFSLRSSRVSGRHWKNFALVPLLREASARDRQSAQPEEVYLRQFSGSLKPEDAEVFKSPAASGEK
Sequence of Transient receptor potential cation channel subfamily V member 4 (Rattus norvegicus) (Q9ERZ8 whole entry): as the sequence (Q9ERZ8 whole entry) above
Sequence of Transient receptor potential cation channel subfamily A member 1 (Rattus norvegicus) (Q6RI86 whole entry): as the sequence (Q6RI86 whole entry) above
Sequence of Transient receptor potential cation channel subfamily M member 8 (Q8R455 whole entry): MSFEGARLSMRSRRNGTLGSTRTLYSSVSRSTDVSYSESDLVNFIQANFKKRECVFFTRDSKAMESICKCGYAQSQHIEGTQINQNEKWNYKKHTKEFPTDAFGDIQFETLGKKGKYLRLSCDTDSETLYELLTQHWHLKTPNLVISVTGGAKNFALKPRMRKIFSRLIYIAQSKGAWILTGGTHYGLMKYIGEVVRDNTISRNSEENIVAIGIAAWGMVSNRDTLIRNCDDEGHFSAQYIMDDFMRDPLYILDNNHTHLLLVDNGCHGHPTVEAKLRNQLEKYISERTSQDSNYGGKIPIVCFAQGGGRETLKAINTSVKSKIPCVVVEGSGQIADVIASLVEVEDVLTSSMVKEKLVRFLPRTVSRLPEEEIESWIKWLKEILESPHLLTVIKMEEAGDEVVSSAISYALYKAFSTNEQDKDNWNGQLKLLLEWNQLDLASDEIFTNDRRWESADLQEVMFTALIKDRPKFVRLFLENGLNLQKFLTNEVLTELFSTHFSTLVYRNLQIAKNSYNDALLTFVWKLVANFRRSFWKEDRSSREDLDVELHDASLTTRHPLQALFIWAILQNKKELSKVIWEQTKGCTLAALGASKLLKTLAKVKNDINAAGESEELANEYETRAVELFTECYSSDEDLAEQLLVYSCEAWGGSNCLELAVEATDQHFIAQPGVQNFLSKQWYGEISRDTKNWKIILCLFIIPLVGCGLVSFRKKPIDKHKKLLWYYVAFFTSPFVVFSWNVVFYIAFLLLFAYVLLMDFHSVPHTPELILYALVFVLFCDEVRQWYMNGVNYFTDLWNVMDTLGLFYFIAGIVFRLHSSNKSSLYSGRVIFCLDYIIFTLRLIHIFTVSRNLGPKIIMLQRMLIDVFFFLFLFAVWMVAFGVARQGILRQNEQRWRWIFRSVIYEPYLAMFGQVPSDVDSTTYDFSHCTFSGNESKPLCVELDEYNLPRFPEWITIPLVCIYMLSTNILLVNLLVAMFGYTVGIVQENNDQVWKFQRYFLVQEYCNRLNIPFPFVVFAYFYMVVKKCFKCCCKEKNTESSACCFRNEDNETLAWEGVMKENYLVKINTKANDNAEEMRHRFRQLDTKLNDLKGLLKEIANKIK

SMILES	Efficacy [1]	Efficacy [2]	IC50 [3]	IC50 [4]	EC50 [5]	EC50 [6]	Efficacy [7]	EC50 [8]	EC50 ([9]; hek293)	IC50 [10]	IC50 [11]	IC50 [12]	Efficacy [13]	Efficacy [14]	EC50 [15]	IC50 [16]	EC50 ([9]; read-out: EC50)	Efficacy ([13]; filed as agonist)	Efficacy ([14]; filed as agonist)
C=C(C)[C@@H]1CCC(C)=C[C@H]1c1c(O)cc(CCCCC)c(Cc2c(CCCCC)cc(O)c([C@@H]3C=C(C)CC[C@H]3C(=C)C)c2O)c1O	96.7%	66.5%	> 20 µM	3.9 µM	3 µM	6.2 µM	10.6%	4.6 µM	Not Active	11.8 µM	> 20 µM	4.9 µM	< 10%	12.3%	4.5 µM	> 20 µM			
C=C(C)[C@@H]1CCC(C)=C[C@H]1c1c(O)cc(CCCCC)cc1O [CANNABIDIOL]	109%	53.6%	3.7 µM	2.8 µM	0.48 µM	0.9 µM	15.2%	0.51 µM		0.75 µM	5.9 µM	0.45 µM			4.1 µM	1.1 µM	1.2 µM	67.5%	78.4%
